# Where two headings read alike, the source gives them in different places.
# Key:
# Type in all cases: cell-based, human
# [1] = test system: pERK in NCIH2087 cells (BRAF L597V; KRAS Q61K); experiment: Phospho-ERK inhibition (AlphaLISA), NCIH2087; details: for NCIH2087 pERK % Ymin: NCIH2087, value in parentheses
# Description: (§1) All cancer cell lines (A375, A101D, A2058, RKO, HT29 SK-MEL 30, IPC298, HepG2, HCT-116, Lovo, SWV620, SW480, NCI-H358, NCI-H2122, Calu-6, NCIH2087, NCIH1755, NCIH1666 and Mewo) were obtained from ATCC and cultured in RPMI-1640 medium (Gibco) supplemented with 5% heat inactivated fetal bovine serum (FBS, Wisent) at 37° C. under 5% CO2. Cells were maintained in T175 flasks (Greiner). They were passaged by removing the culture medium, washing once in 10 mL of room temperature Phosphate Buffered Saline (PBS; Wisent) and incubating at 37° C. with 2 mL of 0.05% Trypsin (Thermo-Fisher). Trypsin was then inactivated by adding complete growth medium and the cells were then replated in a T175 culture dish at the appropriate dilution. All cell lines were routinely tested for mycoplasma contamination. Tissue type and mutational status of each cell line can be found in Table B.
# (§2) AlphaLISA® SureFire® Ultra™ p-ERK 1/2 (Thr202/Tyr204) analysis was conducted on cells plated in 100 μL of complete RPMI-1640 growth medium in 96-well flat-bottomed transparent dishes (Costar) at a density indicated in Table C. Cells were maintained overnight at 37° C. under 5% CO2 before treatment with compounds' dilution series for one hour. The cell density in cells/cm^2 corresponds to cell number divided by the area of one well of a 96-well plate ([…]).
# (§3) In a dilution series 100 μL/well of test substance dilution prepared in complete RPMI-1640 growth media was added to the cells. The dilution series is selected so that ten concentrations cover a range from 10 μM to 0.33 nM. If necessary the initial concentration of 10 μM is increased to 100 μM or lowered to 1 μM (as in the case of A375 and H1666 cells, which are generally more sensitive to the compounds) and further dilution is carried out accordingly. The final concentration of DMSO in the assay is set at 0.5%.
# (§4) After treatment, media was removed and cells were lysed in 50 μL of 1× AlphaScreen Ultra Lysis Buffer (Perkin Elmer). The AlphaLISA® SureFire® Ultra™ p-ERK 1/2 (Thr202/Tyr2O4) (PerkinElmer) reactions were performed with 5 μL of cell lysate according to the manufacturer's specifications in 384-well proxyplates (Perkin Elmer) followed by overnight incubation of the reactions at room temperature in a humidified chamber. After completion of the reactions, the signals were recorded on an EnVision plate reader (Perkin Elmer) using built in AlphaLISA® settings.
# (§5) The effect of each compound dilution on the pERK signal was expressed in % inhibition and calculated as follows. An internal 100% inhibition control ([…] trametinib, cat #HY-10999; MedChem Express; CAS #871700-17-3) was included in each plate and used as a measure of pERK background. First, the value obtained for trametinib was subtracted from each data point. The average of DMSO (vehicle) controls (set as 0% inhibition) was established and used to calculate % inhibition: % inhibition=100*(1-((pERK signalcompound)/(pERK signalDMSO)))
# (§6) The ability of each compound to inhibit pERK signal was expressed as an IC50 value obtained by plotting the inhibition values for each data point of a dilution series and fitting the obtained curves using a log(agonist) versus response-variable slope (four parameters) function using GraphPadPrism (V7.0) or Dotmatics Screening Ultra platform.
# (§7) When present, paradoxical pERK induction is inferred from the negative % inhibition values observed in the pERK IC50 curves of a compound.
# [2] = test system: pERK in HepG2 cells (NRAS-Q61L); experiment: Phospho-ERK inhibition (AlphaLISA), HepG2; details: for HepG2 pERK % Ymin: HepG2, value in parentheses; for IC50: HepG2
# Description: as §1, §2, §3, §4, §5, §6, §7
# [3] = test system: pERK in Lovo cells (KRAS-G13D); experiment: Phospho-ERK inhibition (AlphaLISA), Lovo; details: for Lovo pERK % Ymin: value in parentheses
# Description: as §1, §2, §3, §4, §5, §6, §7
# [4] = test system: HT29 cells (BRAF V600E); experiment: Proliferation inhibition (CellTiter-Glo), HT29; details: HT-29, 3 days, read-out: HT-29 Prolif. EC50
# Description: as §1
# (§8) CellTiter-Glo® viability analysis was conducted on cells plated in 100 μL of complete RPMI-1640 growth medium in 96-well flat-bottomed white opaque plates (Greiner or Croning) at a density indicated in Table E (for each CCL, number of cells plated per well of a 96-well plate to perform the CellTiter-Glo® cell viability assay). The cell density in cells/cm^2 would correspond to cell number divided by the area of one well of a 96-well plate (0.32 cm^2). […]
# (§9) After 3 days of incubation, the growth media were removed by aspiration and 60 μL of diluted CellTiter-Glo® reagent (10 μL CellTiter-Glo® reagent+50 μL of PBS) was added to each well. […] Luminescence signals were then acquired on a Synergy Neo2 plate reader (Biotek).
# (§10) The effect of each compound dilution on the proliferation of cancer cell lines was expressed in % inhibition and calculated as follows. […]
# as §6, with “proliferation” for “pERK signal”, “a EC50” for “an IC50”, “effect” for “inhibition”
# [5] = test system: RKO cells (BRAF V600E); experiment: Proliferation inhibition (CellTiter-Glo), RKO; details: 3 days, read-out: RKO Prolif. EC50
# Description: as §1, §8, §9, §10
# as §6, with “proliferation” for “pERK signal”, “a EC50” for “an IC50”, “effect” for “inhibition”
# [6] = test system: pERK in IPC298 cells (NRAS-Q61L); experiment: Phospho-ERK inhibition (AlphaLISA), IPC298; details: for IPC298 pERK % Ymin: IPC298, value in parentheses
# Description: as §1, §2, §3, §4, §5, §6, §7
"IC50 ([1]; Homo sapiens, NCI-H2087) [µM]",IC50 ([2]; Homo sapiens) [µM],"IC50 ([3]; Homo sapiens, LoVo) [µM]","EC50 ([4]; Homo sapiens, 72 h) [µM]","IC50 ([6]; Homo sapiens, IPC-298) [µM]",IC50 ([1]; NCIH2087) [µM],IC50 [2] [µM],IC50 ([3]; Lovo) [µM],EC50 [4] [µM],IC50 ([6]; IPC298) [µM],SMILES,NCIH2087 pERK % Ymin [1] [%],HepG2 pERK % Ymin [2] [%],Lovo pERK % Ymin ([3]; Lovo) [%],"EC50 ([5]; Homo sapiens, 72 h) [µM]",IPC298 pERK % Ymin [6] [%],EC50 [5] [µM]
< 0.03,0.03 to 0.3,< 0.03,< 0.03,0.03 to 0.3,,,,,,"Cc1ccc2c(Nc3cccc(Cl)c3F)nccc2c1NC(=O)c1csc2c(N)ncnc12 [Belvarafenib, reference compound]",6,−36,−12,< 0.03,−63,
,,,,,< 0.03,< 0.03,0.03 to 0.3,< 0.03,0.03 to 0.3,Nc1cccc2c1ncn2-c1ccc2ncnc(Nc3c(F)ccc(NS(=O)(=O)c4cccc(Cl)c4Cl)c3F)c2n1 [Example 99],15,7,−15,,−2,< 0.03
,,,,,< 0.03,0.03 to 0.3,0.03 to 0.3,< 0.03,0.03 to 0.3,CC1(O)CCN(c2cccc3c2ncn3-c2ccc3ncnc(Nc4c(F)ccc(NS(=O)(=O)c5cccc(Cl)c5Cl)c4F)c3n2)CC1 [Example 524],3,2,−5,,13,< 0.03
